Test in all cases: relative viability (nuclei count vs DMSO), 5 days (fraction); higher = more cells survive
Compound in experiment [1]: CNC(=O)c1cc(Oc2ccc(NC(=O)Nc3ccc(Cl)c(C(F)(F)F)c3)cc2)ccn1 [Sorafenib] + Cc1cc(Nc2cc(N3CCN(C)CC3)nc(Sc3ccc(NC(=O)C4CC4)cc3)n2)n[nH]1 [Tozasertib] (partner 0.1 µM)
In short, it runs like this:
(§1)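 Relative viability divides the nuclei count in treated wells by that in vehicle wells. Lung cancer cell lines were seeded in 1536-well plates, dosed by pin tool the next day, and fixed and stained after 5 days in one step with final 0.05% Triton X-100, 1% formaldehyde and 1 ug/ml Hoechst. Dosing was a single drug or a fixed anchor-drug dose plus five library-drug doses (not always all listed) in √10 steps, and values are medians of duplicate plates imaged at 4×.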

Compound in experiment [2]: CNC(=O)c1cc(Oc2ccc(NC(=O)Nc3ccc(Cl)c(C(F)(F)F)c3)cc2)ccn1 [Sorafenib] + COc1cc2c(Oc3ccc(NC(=O)C4(C(=O)Nc5ccc(F)cc5)CC4)cc3F)ccnc2cc1OCCCN1CCOCC1 [Foretinib] (partner 0.25 µM)
In short, it runs like this: as §1

Compound in experiment [3]: CNC(=O)c1cc(Oc2ccc(NC(=O)Nc3ccc(Cl)c(C(F)(F)F)c3)cc2)ccn1 [Sorafenib] + CC(=O)Nc1cccc(-n2c(=O)n(C3CC3)c(=O)c3c(Nc4ccc(I)cc4F)n(C)c(=O)c(C)c32)c1 [Trametinib] (partner 0.02 µM)
In short, it runs like this: as §1

Compound in experiment [4]: CNC(=O)c1cc(Oc2ccc(NC(=O)Nc3ccc(Cl)c(C(F)(F)F)c3)cc2)ccn1 [Sorafenib] + Nc1nc2[nH]cc(CCc3ccc(C(=O)N[C@@H](CCC(=O)O)C(=O)O)cc3)c2c(=O)[nH]1 [Pemetrexed] (partner 0.2 µM)
Summed up:
as §1

Compound in experiment [5]: CNC(=O)c1cc(Oc2ccc(NC(=O)Nc3ccc(Cl)c(C(F)(F)F)c3)cc2)ccn1 [Sorafenib] + CC(C)C[C@H](NC(=O)[C@H](Cc1ccccc1)NC(=O)c1cnccn1)B(O)O [Bortezomib] (partner 0.002 µM)
In short, it runs like this:
as §1

On to NCI-H2085, for which the relative viability in experiment [1] (first compound 0.08 µM) worked out at 0.849; in experiment [1] (first compound 0.253 µM) it was 0.833; in experiment [1] (first compound 2.53 µM), 0.611; in experiment [2] (first compound 0.08 µM), 0.948; in experiment [2] (first compound 0.253 µM), 0.856; in experiment [2] (first compound 2.53 µM), 0.864. For the same cell line, the relative viability turned out to be 0.874 in experiment [2] (first compound 8 µM); 0.643 in experiment [3] (first compound 0.08 µM); 0.464 in experiment [3] (first compound 0.253 µM); 0.43 in experiment [3] (first compound 2.53 µM); 0.391 in experiment [3] (first compound 8 µM); 1.02 in experiment [4] (first compound 0.08 µM). Further, the relative viability in experiment [4] (first compound 0.253 µM) stood at 0.98; in experiment [4] (first compound 2.53 µM), 1.15; in experiment [4] (first compound 8 µM), 0.762; in experiment [5] (first compound 0.08 µM) it was 1.09; in experiment [5] (first compound 0.253 µM), 0.824; in experiment [5] (first compound 2.53 µM) it was 1.01. In addition, the relative viability in experiment [5] (first compound 8 µM) turned out to be 0.91.

Regarding NCI-H661, the relative viability in experiment [1] (first compound 0.08 µM) came to 0.35; in experiment [1] (first compound 0.253 µM), 0.378; in experiment [1] (first compound 2.53 µM) it was 0.333; in experiment [2] (first compound 0.08 µM), 1.03; in experiment [2] (first compound 0.253 µM) it was 0.986; in experiment [2] (first compound 8 µM), 0.701. The relative viability in experiment [3] (first compound 0.08 µM) came out at 0.584; in experiment [3] (first compound 2.53 µM), 0.444; in experiment [3] (first compound 8 µM), 0.291; in experiment [4] (first compound 0.08 µM), 0.918; in experiment [4] (first compound 0.253 µM) it was 0.688; in experiment [4] (first compound 2.53 µM), 0.883. Moreover, the relative viability in experiment [4] (first compound 8 µM) came to 0.427; in experiment [5] (first compound 0.08 µM) it was 0.96; in experiment [5] (first compound 0.253 µM) it was 0.871; in experiment [5] (first compound 2.53 µM), 0.648; in experiment [5] (first compound 8 µM) it was 0.615.

For the cell line EKVX, the relative viability stood at 0.382 in experiment [1] (first compound 0.08 µM); 0.419 in experiment [1] (first compound 0.253 µM); 0.467 in experiment [1] (first compound 2.53 µM); 0.212 in experiment [1] (first compound 8 µM); 1.09 in experiment [2] (first compound 0.08 µM); 0.748 in experiment [2] (first compound 0.253 µM). The relative viability in experiment [2] (first compound 2.53 µM) was determined as 0.672; in experiment [2] (first compound 8 µM), 0.606; in experiment [3] (first compound 0.08 µM) it was 0.36; in experiment [3] (first compound 0.253 µM), 0.349; in experiment [3] (first compound 2.53 µM) it was 0.317; in experiment [3] (first compound 8 µM), 0.219. The relative viability came out at 0.511 in experiment [4] (first compound 0.08 µM); 0.365 in experiment [4] (first compound 0.253 µM); 0.375 in experiment [4] (first compound 2.53 µM); 0.389 in experiment [4] (first compound 8 µM); 1.19 in experiment [5] (first compound 0.08 µM); 0.879 in experiment [5] (first compound 0.253 µM). The relative viability in experiment [5] (first compound 2.53 µM) worked out at 0.962; in experiment [5] (first compound 8 µM), 0.994.

For LCLC-97TM1, the relative viability in experiment [1] (first compound 0.08 µM) is 0.191; in experiment [1] (first compound 0.253 µM) it was 0.232; in experiment [1] (first compound 2.53 µM) it was 0.195; in experiment [1] (first compound 8 µM), 0.188; in experiment [2] (first compound 0.08 µM) it was 0.959; in experiment [2] (first compound 0.253 µM), 0.837. Further, the relative viability was 0.897 in experiment [2] (first compound 2.53 µM); 0.926 in experiment [2] (first compound 8 µM); 0.198 in experiment [3] (first compound 0.08 µM); 0.199 in experiment [3] (first compound 0.253 µM); 0.133 in experiment [3] (first compound 2.53 µM); 0.103 in experiment [3] (first compound 8 µM). In addition, the relative viability in experiment [4] (first compound 0.08 µM) came to 0.154; in experiment [4] (first compound 0.253 µM), 0.168; in experiment [4] (first compound 2.53 µM) it was 0.118; in experiment [4] (first compound 8 µM), 0.226; in experiment [5] (first compound 0.08 µM), 0.725; in experiment [5] (first compound 0.253 µM), 0.623. Moreover, the relative viability is 0.992 in experiment [5] (first compound 2.53 µM) and 0.73 in experiment [5] (first compound 8 µM).

Take NCI-H322M: the relative viability in experiment [1] (first compound 0.08 µM) turned out to be 0.512; in experiment [1] (first compound 0.253 µM), 0.394; in experiment [1] (first compound 2.53 µM), 0.527; in experiment [1] (first compound 8 µM), 0.475; in experiment [2] (first compound 0.08 µM), 1.19; in experiment [2] (first compound 0.253 µM), 0.994. The relative viability turned out to be 1.14 in experiment [2] (first compound 2.53 µM); 1.05 in experiment [2] (first compound 8 µM); 0.769 in experiment [3] (first compound 0.08 µM); 0.52 in experiment [3] (first compound 0.253 µM); 0.455 in experiment [3] (first compound 2.53 µM); 0.481 in experiment [3] (first compound 8 µM). The relative viability in experiment [4] (first compound 0.08 µM) stood at 0.728; in experiment [4] (first compound 0.253 µM), 0.618; in experiment [4] (first compound 2.53 µM), 0.739; in experiment [4] (first compound 8 µM), 0.763; in experiment [5] (first compound 0.08 µM), 1.3; in experiment [5] (first compound 0.253 µM) it was 1.18. Also, the relative viability in experiment [5] (first compound 8 µM) amounted to 1.55.

For the origin of these results see the supplement of paper PMC10307832.
